The target in one assay is T1, 5-lipoxygenase (Mus musculus, UniProt P48999).
T1 construct: The supernatant is used as a 5-lipogenase enzyme solution; endogenous in cells
T1 sequence (P48999 1-674): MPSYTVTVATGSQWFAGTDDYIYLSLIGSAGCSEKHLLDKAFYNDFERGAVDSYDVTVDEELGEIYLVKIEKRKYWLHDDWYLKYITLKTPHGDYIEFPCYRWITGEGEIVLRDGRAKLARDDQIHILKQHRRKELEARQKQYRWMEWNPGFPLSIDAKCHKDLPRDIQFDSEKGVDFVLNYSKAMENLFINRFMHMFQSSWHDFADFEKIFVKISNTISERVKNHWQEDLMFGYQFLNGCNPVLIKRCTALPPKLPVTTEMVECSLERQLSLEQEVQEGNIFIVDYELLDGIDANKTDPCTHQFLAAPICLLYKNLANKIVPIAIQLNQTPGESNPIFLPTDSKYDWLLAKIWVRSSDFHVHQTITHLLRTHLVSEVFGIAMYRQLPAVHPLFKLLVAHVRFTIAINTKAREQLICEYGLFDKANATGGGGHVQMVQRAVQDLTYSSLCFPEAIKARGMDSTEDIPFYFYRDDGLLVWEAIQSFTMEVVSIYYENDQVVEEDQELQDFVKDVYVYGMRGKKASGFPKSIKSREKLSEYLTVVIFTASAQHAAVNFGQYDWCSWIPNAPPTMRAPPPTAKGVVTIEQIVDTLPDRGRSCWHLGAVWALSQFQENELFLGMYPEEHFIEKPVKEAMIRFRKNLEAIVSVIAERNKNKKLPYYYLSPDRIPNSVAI
Briefly: 5-Lipoxygenase-inhibiting Activity (decrease in 5-HETE and LTB4 formed from radiolabelled arachidonic acid, enzyme solution from mouse mastcytoma cells P-815). It is filed as biochemical.
Details: not given
The procedure:
Mouse mastcytoma cells P-815 are diluted in a culture solution, containing 90% Eagle Basic Medium (manufactured by Gibco Laboratories) to 5×10^4 cells/ml. The diluted solution is cultivated with shaking in air at 37° C. for 48 hours. Then, the culture solution is cooled with ice and centrifuged to collect the cells. The cells are suspended in a phosphate buffer solution at pH 7.4 at a concentration of 2×10^7 cells/ml. The suspension is treated in a ultrasonic cell disintegrater and then centrifuged at 10,000 r.p.m. for 10 min. The supernatant is used as a 5-lipogenase enzyme solution. In test tubes are placed 20 μl of radiolabelled arachidonic acid ([…]), indomethacin (2×10^-8 mol) and an amide derivative to be tested, respectively. To each of the test tubes are added 0.45 ml of a phosphate buffer solution, 0.45 ml of the above-prepared suspension, 0.45 ml of the above-prepared enzyme solution and 0.1 ml of 8 mM CaCl2 (calcium chloride). The mixture is reacted at 37° C. for 5 min. After cooled with ice, 60 μl of 1N-HCl (hydrochloric acid is added to the reaction mixture, which is then extracted with 8 ml of ethyl acetate. The extract is concentrated, and the concentrate is developed by spotting on a silica gel thin layer plate (Merck 60F 254). Measurement of the inhibitory activity is made by collecting fractions corresponding to lipoxygenase products 5-HETE (5(s)-hydroxy-6,8,11,14-eicosatetraenic acid) and LTB4 (leucotriene B4) and determining the radioactivity by a liquid scintillation counter. The lipoxygenase inhibiting activity is determined by decrease in the amount of the above-mentioned 5-lipoxygenaseproducts. […] 50% inhibitory concentration or 30% inhibitory concentration as indicated in the table means the concentration of an amide derivative required for reducing the amount of the above-mentioned 5-lipoxygenase products (5-HETE and LTB4) to 50% or 30% of the amount when the amount of 5-HETE and LTB4 produced in the absenced of the amide derivative is 100%.
`COc1cc(/C=C/C=C/C(=O)N2CCN(CCOC(c3ccccc3)c3ccccc3)CC2)cc(OC)c1O` [Example 98, N-[5-(3,5-dimethoxy-4-hydroxyphenyl)-2,4-pentadienoyl)-N'-(2-benzhydroxyethyl)piperazine] yielded an IC50 of 9 nM.

The same assay, now with this note: 5-HETE and LTB4 formation; mouse mastcytoma P-815 enzyme solution; 37° C., 5 min; pH 7.4; with indomethacin; read-out: 50% Inhibitory concentration IC50.
`COc1cc(/C=C/C(=O)NCCN2CCN(C(c3ccccc3)c3ccccc3)CC2)ccc1O` [Example 2, N-benzhydryl-N'-[2-{3-(3-methoxy-4-β-hydroxyphenyl)-2-propenoyl}aminoethyl]piperazine]: the IC50 turned out to be 600 nM.
For `COc1cc(/C=C/C(=O)NCCCCN2CCN(C(c3ccccc3)c3ccccc3)CC2)ccc1O` [Example 68], the IC50 is 40 nM.
Still for that read-out and setting: the figure for `COc1cc(/C=C/C(=O)N2CCN(CCCOC(c3ccccc3)c3ccccc3)CC2)cc(OC)c1O` [Example 80, N-[3-(3,5-dimethoxy-4-hydroxyphenyl) 2-propenoyl]-N'-(3-benzhydroxypropyl)piperazine] is 30 nM.
Still for that read-out and setting: the figure for `COc1cc(/C=C/C=C/C(=O)N2CCN(CCn3cnc4c3c(=O)n(C)c(=O)n4C)CC2)cc(OC)c1O` [Example 114] is 2000 nM; for `CC(=O)OCc1cnc(C)c(O)c1CNC(=O)/C=C/c1ccc(O)c(O)c1` [Example 5, N-caffeoyl-o-acetylpyridoxane] it is 1000 nM; for `O=C(/C=C/c1ccc(O)c(O)c1)NCCCN1CCC(OC(c2ccccc2)c2ccccc2)CC1` [Example 122, 1-[3-[3-(3,4-dihydroxyphenyl)-2-propenoyl]aminopropyl]-4-benzhydroxypiperidine] it is 10 nM.
On the same count and under the same terms, in the case of `COc1cc(/C=C/C(=O)N2CCN(CCOC(C)(c3ccccc3)c3ccc(Cl)cc3)CC2)ccc1O` (stereo not drawn) [Example 102, N-[3-[3-methoxy-4-hydroxyphenyl)-2-propenoyl]-N'-[2-[1-phenyl-1-(p-chlorophenyl)ethoxy]ethyl]piperazine] it was 200 nM.
In the case of `COc1cc(/C=C/C=C/C(=O)N2CCN(CCCOC(C)(c3ccccc3)c3ccc(Cl)cc3)CC2)ccc1O` (stereo not drawn) [Example 111, N-[5-(3-methoxy-4-hydroxy)phenyl-2,4-pentadienoyl)-N'-[3-[1-phenyl-1-(p-chlorophenyl)ethoxy]propyl]piperazine], the IC50 worked out at 10 nM.
On the same count and under the same terms, the figure for `COc1cc(/C=C/C=C/C(=O)NCc2c(COC(=O)c3ccc(C)cc3)cnc(C)c2O)ccc1O` [Example 41, 4-[5-(3-methoxy-4-hydroxyphenyl)-2,4-pentadienoyl]-aminomethyl-3-hydroxy-2-methyl-5-toluoxymethylpyridine] is 200 nM; for `CC/C=C\C/C=C\C/C=C\C/C=C\C/C=C\C/C=C\CCC(=O)NCCCCNC(=O)/C=C/C=C/c1ccc(O)c(O)c1` [Example 22, N-5-(3,4-dihydroxyphenyl)-2,4-pentadienoyl-N'-4,7,10,13,16,19-docosahexaenoyl-1,4-diaminobutane] it is 40 nM; for `COc1cc(/C=C/C(=O)N2CCN(CCOC(c3ccccc3)c3ccccc3)CC2)ccc1O` [Example 70] it is 600 nM.
Still for that read-out and setting: in the case of `COc1cc(/C=C/C=C/C(=O)N2CCN(CCCn3cnc4c3c(=O)n(C)c(=O)n4C)CC2)cc(OC)c1OC` [Example 134, 7-[3-[4-[5-(3,4,5-trimethoxyphenyl)-2,4-pentadienoyl]piperazi-1-nyl]-1-propyl]theophylline] it was 20000 nM; in that of `COc1cc(/C=C/C=C/C(=O)NCCCCNC(=O)/C=C/C=C/c2ccc(O)c(OC)c2)ccc1O` [Example 14, N,N'-di{5-(3-methoxy-4-hydroxyphenyl)-2,4-pentadienoyl}-1,4-diaminobutane], 100 nM; in that of `COc1cc(/C=C/C=C/C(=O)N2CCN(CCCOC(c3ccccc3)c3ccccc3)CC2)ccc1O` [Example 90, N-[5-(3-methoxy-4-hydroxyphenyl)-2,4-pentadienoyl]-N'-(3-benzhydroxypropyl)piperazine], 60 nM.
The same measure, in the same setting: the figure for `O=C(/C=C/C=C/c1ccc(O)c(O)c1)NCCCCNC(=O)/C=C/C=C/c1ccc(O)c(O)c1` [Example 21, N,N'-di[5-(3,4-dihydroxyphenyl)-2,4-pentadienoyl]-1,4-diaminobutane] is 30 nM; for `Cn1c(=O)c2c(ncn2CCCCN2CCN(C(=O)/C=C/c3ccc(O)c(O)c3)CC2)n(C)c1=O` [Example 121, 7-[4-[4-{3-(3,4-dihydroxyphenyl)-2-propenoyl}piperazi-1-nyl]butyl]theophylline] it is 5000 nM; for `COc1cc(/C=C/C=C/C(=O)NCCCN2CCN(C(c3ccccc3)c3ccccc3)CC2)ccc1O` [Example 38, N-[3-[5-(3-methoxy-4-hydroxyphenyl)-2,4-pentadienoyl]aminopropyl]-N'-benzhydrylpiperazine] it is 200 nM.
Consider `COc1cc(/C=C/C=C/C(=O)N2CCN(CCCCn3cnc4c3c(=O)n(C)c(=O)n4C)CC2)cc(OC)c1O` [Example 132], for which the IC50 was 1000 nM.
Consider `O=C(/C=C/c1ccc(O)c(O)c1)NCCOC(c1ccccc1)c1ccccc1` [Example 67, 2-[3-(3,4-dihydroxy)phenyl-2-propenoyl]aminoethyl benzhydryl ether], for which the IC50 turned out to be 30 nM.
Same read-out and setting: in the case of `COc1cc(/C=C/C=C/C(=O)Nc2ccccc2C(=O)O)ccc1O` [Example 13, N-5-(3-methoxy-4-hydroxyphenyl)-2,4-pentadienoylanthranilic acid] it was 600 nM; in that of `COc1cc(/C=C/C=C/C(=O)N2CCN(CCOC(C)(c3ccccc3)c3ccc(Cl)cc3)CC2)ccc1O` (stereo not drawn) [Example 110, N-[5-(3-methoxy-4-hydroxyphenyl)-2,4-pentadienoyl]-N'-[2-[1-phenyl-1-(p-chlorophenyl)ethoxy]ethyl]piperazine], 10 nM.
In the case of `COc1ccc(/C=C/C(=O)NCCCCN2CCN(C(c3ccccc3)c3ccccc3)CC2)cc1OC` [Example 74, N-[4-[3-(3,4-dimethoxyphenyl)-2-propenoyl]aminobutyl]-N'-benzhydrylpiperazine], the IC50 was 8000 nM.
On to `O=C(/C=C/C=C/c1ccc(O)c(O)c1)NCCCN1CCN(C(c2ccccc2)c2ccccc2)CC1` [Example 44, N-benzhydryl-N'-[[5-{3,4-dihydroxyphenyl)-2,4-pentadienoyl}aminopropyl]piperazine], for which the IC50 turned out to be 80 nM.
Turning to `COc1cc(/C=C/C(=O)N2CCN(CCCn3cnc4c3c(=O)n(C)c(=O)n4C)CC2)cc(OC)c1OC` [Example 127, 7-[3-[4-[3-(3,4,5-trimethoxyphenyl)-2-propenoyl]piperazi-1-nyl]-1-propyl]theopylline], the IC50 stood at 30000 nM.
`O=C(/C=C/C=C/c1ccc(O)c(O)c1)NCCCCN1CCN(C(c2ccccc2)c2ccc(Cl)cc2)CC1` (stereo not drawn) [Example 82, N-(p-chlorobenzhydryl)-N'-[4-[5-(3,4-dihydreoxyphenyl) -2,4-pentadienoyl]aminobutyl]piperazine]: the IC50 amounted to 20 nM.
Same read-out and setting: the figure for `Cn1c(=O)c2c(ncn2CCN2CCN(C(=O)/C=C/C=C/c3ccc(O)c(O)c3)CC2)n(C)c1=O` [Example 109] is 2000 nM; for `COc1cc(/C=C/C=C/C(=O)NCCOC(c2ccccc2)c2ccccc2)cc(OC)c1O` [Example 100, 2-[5-(3,5-dimethoxy-4-hydroxy)phenyl-2,4-pentadienoyl]aminoethyl benzhydryl ether] it is 10 nM.
On the same count and under the same terms, in the case of `COc1cc(/C=C/C(=O)NCCCOC(c2ccccc2)c2ccccc2)ccc1O` [Example 73, 3-[3-[3-methoxy-4-hydroxyphenyl)-2-propenoyl]aminopropyl benzhydryl ether] it was 700 nM; in that of `COc1cc(/C=C/C(=O)N2CCN(CCCOC(C)(c3ccccc3)c3ccc(Cl)cc3)CC2)cc(OC)c1O` (stereo not drawn) [Example 106, N-[3-(3,5-dimethoxy-4-hydroxy)phenyl-2-propenoyl]-N'-[3-[1-phenyl-1-(p-chlorophenyl)ethoxy]propyl]piperazine], 10 nM.

These data come from patent publication US4673684A, “Amide derivatives and 5-lipoxygenase inhibitors containing the same as an active ingredient” (Terumo Corporation, priority 1984, dated 1987).
